Measurements from patent US8329686B2, “Isatin analogues and uses therefor” (Washington University, priority 2006, dated 2012).
Where two headings read alike, the source gives them in different places.

Columns and labels:
[1] = Biodistribution of [^18F]WC-II-89 in normal and cycloheximide-treated rats; format: in vivo, Sprague-Dawley rats
Protocol: All animal studies were performed in accordance with the regulations of the Washington University Institutional Animal Care and Use Committee. Mature male Sprague Dawley rats from Charles River Laboratories were briefly anesthetized with 1-2% isoflurane in oxygen. […] Treated rats also received 5 mg/kg cycloheximide in saline via the tail vein three hours prior to radiotracer administration in order to induce caspase-mediated liver apoptosis. At set time-points following radiopharmaceutical injection, rats were again anesthetized and euthanized. Target and non-target organs were removed, weighed, and the radioactivity was counted using a Beckman Gamma 8000 well counter. Standard dilutions of the injected dose were counted along with the samples and uptake was calculated and reported as percent injected dose per gram (% ID/g).
This model, which uses the protein synthesis inhibitor, cycloheximide (CHX), was previously used in the evaluation of radiolabeled annexin V analogs (37). Tissue morphology and TUNEL staining studies have shown that cycloheximide induces apoptosis in rat liver in both a dose-dependent and time-dependent manner. Within 3 hours of treatment with 1.5, 3, or 10 mg of cycloheximide per kilogram of body weight, apoptosis was induced in rat liver (35, 36). Therefore, we chose 3 hours treatment of 5 mg/kg to induce the maximum apoptosis in rat liver, expecting a high level of caspase-3 activation.
In general, the initial uptake was higher for CHX treated rats than control rats. However, the difference between control and treated rats was reduced with time with the exception of the liver and spleen.

[2] = MicroPET imaging of [^18F]WC-II-89 in control and cycloheximide-treated rat; format: in vivo; conditions: cycloheximide 3-hour pretreated rat versus control, 10-60 minutes post-i.v. injection
Protocol: MicroPET imaging studies were performed using a MicroPET Focus 220 and MicroPET Focus 120 scanner (Siemens/CTI, Knoxyille, Tenn.). A control and cycloheximide-treated (5 mg/kg, 3 hours pretreated) rat were anesthetized and a catheter inserted in the jugular vein. […] MicroPET images were reconstructed with OSEM-2D data analysis software package (Siemens/CTI, Knoxyille, Tenn.).
This was also confirmed by Western blot analysis of the rat livers following completion of the microPET imaging study.

caspase 7 = target: T1, caspase 7 (Homo sapiens, UniProt P55210); test: Enzyme inhibition assay, caspase 7 (fluorogenic Ac-DEVD-AMC); format: biochemical
T1 construct: purchased Sigma-Aldrich (St. Louis, Mo.)
T1 sequence (P55210 24-198 limits assumed): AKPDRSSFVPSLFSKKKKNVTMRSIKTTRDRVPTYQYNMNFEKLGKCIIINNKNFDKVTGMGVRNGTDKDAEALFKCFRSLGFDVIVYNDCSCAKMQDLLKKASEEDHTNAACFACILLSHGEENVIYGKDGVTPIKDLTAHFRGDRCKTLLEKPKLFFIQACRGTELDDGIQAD
T1 sequence (P55210 207-303 limits assumed): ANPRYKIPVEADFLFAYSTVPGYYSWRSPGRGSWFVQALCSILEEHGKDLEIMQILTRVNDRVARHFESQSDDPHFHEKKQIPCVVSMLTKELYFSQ
Protocol: (§1) Enzyme Assays. Inhibition of recombinant human caspase-3 and other caspases by the isatin analogues was assessed using a fluorometric assay by measuring the accumulation of a fluorogenic product, 7-amino-4-methylcoumarin (7-AMC).
(§2) Enzyme Inhibition Assays. Recombinant human caspases (3, 6, 7, and 8) and their peptide-specific substrates (Ac-DEVDAMC, Ac-VEID-AMC, Ac-DEVD-AMC, and Ac-IETD-AMC, respectively) were purchased from Sigma-Aldrich (St. Louis, Mo.) with the exception of caspase 1 and its substrate (Ac-YVAD-AMC), which were obtained from BIOMOL Research Laboratories (Plymouth Meeting, Pa.). The enzymatic activity of caspases was determined by measuring the accumulation of the fluorogenic product 7-amino-4-methylcoumarin (AMC). All assays were prepared in 96-well format at a volume of 210 μL per well and consisted of 100 mM Na+ HEPES (pH 7.4), 10% sucrose, 100 mM NaCl, 0.1% CHAPS, 5 mM 2-mercaptoethanol, 2 mM EDTA, 10 μM Ac-YVAD-AMC (caspase 1); 20 mMNa^+ HEPES (pH 7.4), 10% sucrose, 100 mMNaCl, 0.1% CHAPS, 2 mM EDTA, 10 μM Ac-DEVD-AMC (caspase 3); 20 mM Na^+ HEPES (pH 7.4), 10% sucrose, 100 mM NaCl, 0.1% CHAPS, 2 mM EDTA, 10 μM Ac-VEID-AMC (caspase 6); 20 mM Na+ HEPES (pH 7.4), 100 mM NaCl, 10% sucrose, 0.1% CHAPS, 5 mM 2-mercaptoethanol, 2 mM EDTA, 10 μM Ac-DEVD-AMC (caspase 7); 20 mM Na+ HEPES (pH 7.4), 10% sucrose, 100 mM NaCl, 0.1% CHAPS, 2 mM EDTA, 10 μM Ac-IETD-AMC (caspase 8).
(§3) Recombinant caspases were first assayed to determine the optimal concentration for each experiment. Optimal concentrations were based in the linear range of the enzyme activation curves. Peptide inhibitors with known IC50 values were tested together with the compounds as a control for each caspase assay. […] Peptide and nonpeptide inhibitors were dissolved in DMSO, and a 2 serial dilution was performed prior to screening in order to obtain desired concentrations. 10 μL was added to each well containing 100 μL caspase solution and allowed to incubate on ice for 30 min. […] The final concentration of DMSO in all wells was 5% of the total volume. In caspase-1 and caspase-7 assays, 10 mM 2-mercaptoethanol was added to the substrate solution for full activation of the enzymes.
(§4) Compounds were tested in duplicate, and IC50 curves were calculated for all inhibitors assayed. Final IC50s were the average of three independent experiments.

caspase 8 = target: T2, caspase 8 (Homo sapiens, UniProt Q14790); test: Enzyme inhibition assay, caspase 8 (fluorogenic Ac-IETD-AMC); format: biochemical
T2 construct: purchased Sigma-Aldrich (St. Louis, Mo.)
T2 sequence (Q14790 217-374 limits assumed): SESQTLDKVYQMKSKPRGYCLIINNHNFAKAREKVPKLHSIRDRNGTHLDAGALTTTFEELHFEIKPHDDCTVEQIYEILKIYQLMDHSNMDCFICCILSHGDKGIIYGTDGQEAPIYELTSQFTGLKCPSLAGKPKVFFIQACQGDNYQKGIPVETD
T2 sequence (Q14790 385-479 limits assumed): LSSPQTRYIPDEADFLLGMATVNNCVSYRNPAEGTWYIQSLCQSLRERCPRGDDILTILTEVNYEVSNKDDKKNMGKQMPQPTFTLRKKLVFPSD

caspase-3 [3] = target: T3, caspase-3 (Homo sapiens, UniProt P42574); test: Enzyme inhibition assay, caspase 3 (fluorogenic Ac-DEVD-AMC); format: biochemical
T3 construct: purchased Sigma-Aldrich (St. Louis, Mo.)
T3 sequence (P42574 29-175 limits assumed): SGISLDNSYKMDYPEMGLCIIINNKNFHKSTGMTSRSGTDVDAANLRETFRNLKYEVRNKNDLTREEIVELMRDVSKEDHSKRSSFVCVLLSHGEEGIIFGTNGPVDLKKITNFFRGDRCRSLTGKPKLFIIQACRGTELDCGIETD
T3 sequence (P42574 176-277 limits assumed): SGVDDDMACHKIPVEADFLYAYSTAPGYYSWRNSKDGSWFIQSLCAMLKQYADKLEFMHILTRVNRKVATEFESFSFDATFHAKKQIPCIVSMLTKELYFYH

caspase-3 [4] = target: T3, caspase-3; test: Reversibility assay (gel filtration); format: biochemical
Protocol: Then the mixtures were run through the gel filtration column (Bio-Spin 6 Tris columns from Bio-Rad Laboratories, Hercules, Calif.) to remove the free compounds according to the manufacture's instruction. Briefly, 50 μl of the incubation mixture was loaded on the top of the column. The column was then centrifuged at 1000×g for 4 min at 4° C. The resulting elutant was designated as elutant A (for no treatment sample), B (for Z-DEVD-FMK-treated sample) or C (for 30d-treated sample). The elutant was assayed for caspase 3 activity as described in enzyme inhibition assays above. Briefly, 40 μl of the elutant, 60 μl assay buffer and 100 μl substrate (10 μM Ac-DEVD-AMC) were incubated for 1 hour at 37° C. Amount of AMC released was determined using a Victor microplate fluorometer. The recovered caspase-3 activity after gel filtration (%) was calculated.

caspase 1 = target: T4, caspase 1 (Homo sapiens, UniProt P29466); test: Enzyme inhibition assay, caspase 1 (fluorogenic Ac-YVAD-AMC); format: biochemical
T4 construct: purchased BIOMOL Research Laboratories (Plymouth Meeting, Pa.)
T4 sequence (P29466 120-297 limits assumed): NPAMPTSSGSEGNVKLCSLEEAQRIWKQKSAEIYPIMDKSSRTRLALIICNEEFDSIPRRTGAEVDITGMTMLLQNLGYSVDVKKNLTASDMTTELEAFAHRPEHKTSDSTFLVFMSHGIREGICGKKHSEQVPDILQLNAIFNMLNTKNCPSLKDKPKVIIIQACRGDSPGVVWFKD
T4 sequence (P29466 317-404 limits assumed): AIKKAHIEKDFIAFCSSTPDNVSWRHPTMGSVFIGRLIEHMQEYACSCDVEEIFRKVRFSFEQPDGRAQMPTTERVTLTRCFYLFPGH
Protocol: as §1, §2, §3, §4

caspase 6 = target: T5, caspase 6 (Homo sapiens, UniProt P55212); test: Enzyme inhibition assay, caspase 6 (fluorogenic Ac-VEID-AMC); format: biochemical
T5 construct: purchased Sigma-Aldrich (St. Louis, Mo.)
T5 sequence (P55212 24-179 limits assumed): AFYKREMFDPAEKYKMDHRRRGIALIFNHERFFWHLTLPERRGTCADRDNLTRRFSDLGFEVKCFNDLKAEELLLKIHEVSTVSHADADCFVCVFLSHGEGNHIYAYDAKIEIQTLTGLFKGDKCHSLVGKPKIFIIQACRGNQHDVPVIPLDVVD
T5 sequence (P55212 194-293 limits assumed): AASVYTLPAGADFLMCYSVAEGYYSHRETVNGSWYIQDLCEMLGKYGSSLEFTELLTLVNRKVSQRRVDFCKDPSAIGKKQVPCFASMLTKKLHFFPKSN

In the case of O=C1C(=O)N(Cc2ccc(OCC[18F])cc2)c2ccc(S(=O)(=O)N3CCC[C@H]3COc3ccccc3)cc21 [[^18F]WC-II-89], the “% I.D./gram” value ([1]; blood, control rats, 5 min.) is reported as 2.70 ± 0.21 % I.D./gram, the “% I.D./gram” value ([1]; blood, control rats, 1 hr.) is reported as 0.11 ± 0.01 % I.D./gram and the “% I.D./gram” value ([1]; blood, control rats, 2 hr.) is reported as 0.06 ± 0.01 % I.D./gram. For the same compound, the “% I.D./gram” value ([1]; blood, cycloheximide-treated rats, 5 min.) was 3.66 ± 0.40 % I.D./gram, the “% I.D./gram” value ([1]; blood, cycloheximide-treated rats, 1 hr.) was 0.16 ± 0.01 % I.D./gram and the “% I.D./gram” value ([1]; blood, cycloheximide-treated rats, 2 hr.) was 0.07 ± 0.00 % I.D./gram. For the same compound, the “% I.D./gram” value ([1]; bone, control rats, 5 min.) was 0.44 ± 0.04 % I.D./gram, the “% I.D./gram” value ([1]; bone, control rats, 1 hr.) was 0.13 ± 0.02 % I.D./gram and the “% I.D./gram” value ([1]; bone, control rats, 2 hr.) was 0.15 ± 0.06 % I.D./gram. For the same compound, the “% I.D./gram” value ([1]; bone, cycloheximide-treated rats, 5 min.) was 0.66 ± 0.06 % I.D./gram, the “% I.D./gram” value ([1]; bone, cycloheximide-treated rats, 1 hr.) was 0.12 ± 0.01 % I.D./gram and the “% I.D./gram” value ([1]; bone, cycloheximide-treated rats, 2 hr.) was 0.13 ± 0.03 % I.D./gram. For the same compound, the “uptake of radioactivity in bone” value ([1]; bone, defluorination) was “very low uptake”, the “% I.D./gram” value ([1]; fat, control rats, 5 min.) was 0.12 ± 0.02 % I.D./gram and the “% I.D./gram” value ([1]; fat, control rats, 1 hr.) was 0.15 ± 0.02 % I.D./gram. The “% I.D./gram” value ([1]; fat, control rats, 2 hr.) was 0.07 ± 0.01 % I.D./gram, the “% I.D./gram” value ([1]; fat, cycloheximide-treated rats, 5 min.) was 0.09 ± 0.03 % I.D./gram and the “% I.D./gram” value ([1]; fat, cycloheximide-treated rats, 1 hr.) was 0.14 ± 0.01 % I.D./gram. The “% I.D./gram” value ([1]; fat, cycloheximide-treated rats, 2 hr.) was 0.09 ± 0.01 % I.D./gram, the “% I.D./gram” value ([1]; kidney, control rats, 5 min.) was 1.25 ± 0.14 % I.D./gram and the “% I.D./gram” value ([1]; kidney, control rats, 1 hr.) was 0.53 ± 0.07 % I.D./gram. For the same compound, the “% I.D./gram” value ([1]; kidney, control rats, 2 hr.) was 0.18 ± 0.04 % I.D./gram, the “% I.D./gram” value ([1]; kidney, cycloheximide-treated rats, 5 min.) was 1.18 ± 0.08 % I.D./gram and the “% I.D./gram” value ([1]; kidney, cycloheximide-treated rats, 1 hr.) was 0.55 ± 0.05 % I.D./gram. For the same compound, the “% I.D./gram” value ([1]; kidney, cycloheximide-treated rats, 2 hr.) was 0.23 ± 0.05 % I.D./gram, the “uptake in liver, treated rats higher than control” value ([1]; liver, 1-hour post-i.v. injection, cycloheximide-treated vs control) was 94% and the “% I.D./gram” value ([1]; liver, control rats, 5 min.) was 3.13 ± 0.26 % I.D./gram. The “% I.D./gram” value ([1]; liver, control rats, 1 hr.) was 0.38 ± 0.06 % I.D./gram, the “% I.D./gram” value ([1]; liver, control rats, 2 hr.) was 0.16 ± 0.02 % I.D./gram and the “% I.D./gram” value ([1]; liver, cycloheximide-treated rats, 5 min.) was 4.02 ± 0.45 % I.D./gram. For the same compound, the “% I.D./gram” value ([1]; liver, cycloheximide-treated rats, 1 hr.) was 0.73 ± 0.12 % I.D./gram, the “% I.D./gram” value ([1]; liver, cycloheximide-treated rats, 2 hr.) was 0.22 ± 0.03 % I.D./gram and the “% I.D./gram” value ([1]; lung, control rats, 5 min.) was 1.42 ± 0.34 % I.D./gram. The “% I.D./gram” value ([1]; lung, control rats, 1 hr.) was 0.18 ± 0.03 % I.D./gram, the “% I.D./gram” value ([1]; lung, control rats, 2 hr.) was 0.08 ± 0.01 % I.D./gram and the “% I.D./gram” value ([1]; lung, cycloheximide-treated rats, 5 min.) was 2.08 ± 0.23 % I.D./gram. The “% I.D./gram” value ([1]; lung, cycloheximide-treated rats, 1 hr.) was 0.23 ± 0.03 % I.D./gram, the “% I.D./gram” value ([1]; lung, cycloheximide-treated rats, 2 hr.) was 0.11 ± 0.02 % I.D./gram and the “% I.D./gram” value ([1]; muscle, control rats, 5 min.) was 0.14 ± 0.01 % I.D./gram. The “% I.D./gram” value ([1]; muscle, control rats, 1 hr.) was 0.08 ± 0.01 % I.D./gram, the “% I.D./gram” value ([1]; muscle, control rats, 2 hr.) was 0.03 ± 0.00 % I.D./gram and the “% I.D./gram” value ([1]; muscle, cycloheximide-treated rats, 5 min.) was 0.09 ± 0.00 % I.D./gram. For the same compound, the “% I.D./gram” value ([1]; muscle, cycloheximide-treated rats, 1 hr.) was 0.10 ± 0.02 % I.D./gram, the “% I.D./gram” value ([1]; muscle, cycloheximide-treated rats, 2 hr.) was 0.06 ± 0.00 % I.D./gram and the “uptake in spleen, treated rats higher than control” value ([1]; spleen, 1-hour post-i.v. injection, cycloheximide-treated vs control) was 184%. For the same compound, the “% I.D./gram” value ([1]; spleen, control rats, 5 min.) was 1.14 ± 0.08 % I.D./gram, the “% I.D./gram” value ([1]; spleen, control rats, 1 hr.) was 0.15 ± 0.05 % I.D./gram and the “% I.D./gram” value ([1]; spleen, control rats, 2 hr.) was 0.06 ± 0.01 % I.D./gram. For the same compound, the “% I.D./gram” value ([1]; spleen, cycloheximide-treated rats, 5 min.) was 2.24 ± 0.41 % I.D./gram, the “% I.D./gram” value ([1]; spleen, cycloheximide-treated rats, 1 hr.) was 0.43 ± 0.05 % I.D./gram and the “% I.D./gram” value ([1]; spleen, cycloheximide-treated rats, 2 hr.) was 0.11 ± 0.03 % I.D./gram. For the same compound, the “% I.D./gram” value ([1]; thymus, control rats, 5 min.) was 0.23 ± 0.07 % I.D./gram, the “% I.D./gram” value ([1]; thymus, control rats, 1 hr.) was 0.09 ± 0.01 % I.D./gram and the “% I.D./gram” value ([1]; thymus, control rats, 2 hr.) was 0.04 ± 0.00 % I.D./gram. For the same compound, the “% I.D./gram” value ([1]; thymus, cycloheximide-treated rats, 5 min.) was 0.38 ± 0.10 % I.D./gram, the “% I.D./gram” value ([1]; thymus, cycloheximide-treated rats, 1 hr.) was 0.12 ± 0.02 % I.D./gram and the “% I.D./gram” value ([1]; thymus, cycloheximide-treated rats, 2 hr.) was 0.06 ± 0.01 % I.D./gram. For the same compound, the “microPET uptake in the liver” value [2] was “higher uptake”.
COc1ccc(CN2C(=O)C(=C(C#N)C#N)c3cc(S(=O)(=O)N4CCCC4COc4cccnc4)ccc32)cc1 (centres unmarked) [Compound 30d, 2-{1-(4-Methoxy-benzyl)-2-oxo-5-[2-(pyridin-3-yloxymethyl)-pyrrolidine-1-sulfonyl]-1,2-dihydro-indol-3-yl-idene}-malononitrile] gave an IC50 (caspase 7; IC50 (nM) Casp-7, Table 7) of 29.6 ± 1.4 nM, an IC50 (caspase 7; IC50 (nM) Caspase 7, Table 2) of 29.6 ± 1.4 nM and an IC50 (caspase 7; read-out: IC50 for caspase-7) of 15.1 nM. The IC50 (caspase 8; Table 2, read-out: IC50 (nM) Caspase 8) was > 50000 nM, the IC50 (caspase 8; Table 7, read-out: IC50 (nM) Casp-8) was > 50000 nM and the IC50 (caspase 8; read-out: IC50 for caspase-8) was > 50000 nM. It also gave an IC50 (caspase-3 [3]; IC50 (nM) Casp-3, Table 7) of 7.8 ± 1.5 nM, an IC50 (caspase-3 [3]; IC50 (nM) Caspase 3, Table 2) of 7.8 ± 1.5 nM and an IC50 (caspase-3 [3]; IC50 for caspase-3) of 7.8 nM. For the same compound, the “caspase 3 activity after incubation with inhibitor” value (caspase-3 [4]; 3 μM, 1 hour on ice, before gel filtration) was “fully inhibited”, the “recovered caspase-3 activity after gel filtration” value (caspase-3 [4]; elutant compared to untreated elutant A) was “full caspase 3 activity” and the IC50 (caspase 1) was 3900 nM. The IC50 (caspase 1; IC50 (nM) Casp-1, Table 7) was 3900 ± 530 nM, the IC50 (caspase 1; read-out: IC50 for caspase-1) was 2700 to 3200 nM and the IC50 (caspase 6) was 610 ± 113 nM. For the same compound, the IC50 (caspase 6; read-out: IC50 for caspase-6) was 515 to 770 nM.
